{"source": "patent US20250352539A1", "about": "“COMBINATION THERAPY FOR TREATING CANCER” (AstraZeneca AB, priority 2022, published 2025)", "test_in_all_cases": "10-day Cell Titre Glo combination screen", "type_in_all_cases": "cell-based", "key": {"[1]": {"system": "CAL-120", "conditions": "Homo sapiens; CAL-120 breast; monotherapy; read-out: mono AC50", "source_text": "(§1) The Highest Single Agent (HSA) model is used to determine a combination's synergy score (and is based simply on the intuition that if a combination's effect exceeds the effect level of each of its constituents, there must be some combination interaction). Mathematically, the HSA model describes simple superposition of the single agent curves:\n(§2) where CX,Y are the concentrations of the X and Y compound, and IX and IY are inhibitions of the single agents at CX,Y. It is also useful to calculate a volume score (HSA Volume) between the data and the HSA surface to characterise the overall strength of combination effects. Empirically derived combination matrices are compared to their respective HSA additivity models constructed from experimentally collected single agent dose response curves. Summation of this excess additivity across the dose response matrix is referred to HSA Volume.\n(§3) Potency shifting can also be scored using combination index (CI). For a chosen iso-effect level (ICut), CI is calculated as: […]\n(§4) where (CX/ECX) for a particular data point is the ratio of the X compound's measured concentration to its effective concentration at the chosen effect level. The CI is a rough estimate of how much drug was needed in combination relative to the single agent doses required to achieve the chosen effect level. CI values in the range of 0.5-0.7 are typical for in vitro measurements of current clinical combinations. The CI error (σCI) is calculated using standard error propagation through the CI calculation based on the isobologram errors.\n(§5) This combination screen was a 10-day assay using Cell Titre Glo as the readout for viability.\n(§6) The assay was performed in 384 well plates, with 1 cell line and 4 drug-drug combinations per plate dosed in a 6×6 matrix. A day zero reading was measured to determine growth inhibition. GenedataScreener was used to input the raw values for every well, and the software was programmed to normalise the values to the day zero and DMSO control values.\n(§7) The CellTiter-Glo® Luminescent Cell Viability Assay is a homogeneous method to determine the number of viable cells in culture based on quantitation of the ATP present, which signals the presence of metabolically active cells. It relies on the properties of a proprietary thermostable luciferase (Ultra-Glo™ Recombinant Luciferase), which generates a stable “glow-type” luminescent signal and improves performance across a wide range of assay conditions.\n(§8) The following information was reported: Synergy scores (HSA); combination index values; AC50 (half-maximal activity concentration) monotherapy values."}, "[2]": {"system": "Calu-1", "conditions": "monotherapy, read-out: mono AC50", "source_text": "as §1, §2, §3, §4, §5, §6, §7, §8"}, "[3]": {"system": "DU4475", "conditions": "Homo sapiens, DU-4475; DU4475 breast; monotherapy; read-out: mono AC50", "source_text": "as §1, §2, §3, §4, §5, §6, §7, §8"}, "[4]": {"system": "EFM-19", "conditions": "Homo sapiens; EFM-19 breast; monotherapy; read-out: mono AC50", "source_text": "as §1, §2, §3, §4, §5, §6, §7, §8"}, "[5]": {"system": "HCC1395", "conditions": "Homo sapiens; HCC1395 breast; monotherapy; read-out: mono AC50", "source_text": "as §1, §2, §3, §4, §5, §6, §7, §8"}, "[6]": {"system": "HCC1569", "conditions": "Homo sapiens; HCC1569 breast; monotherapy; read-out: mono AC50", "source_text": "as §1, §2, §3, §4, §5, §6, §7, §8"}, "[7]": {"system": "HCC1937", "conditions": "Homo sapiens; HCC1937 breast; monotherapy; read-out: mono AC50", "source_text": "as §1, §2, §3, §4, §5, §6, §7, §8"}, "[8]": {"system": "HOP62", "conditions": "Homo sapiens, HOP-62; HOP62 lung; monotherapy; read-out: mono AC50", "source_text": "as §1, §2, §3, §4, §5, §6, §7, §8"}, "[9]": {"system": "JIMT-1", "conditions": "Homo sapiens; JIMT-1 breast; monotherapy; read-out: mono AC50", "source_text": "as §1, §2, §3, §4, §5, §6, §7, §8"}, "[10]": {"system": "MCF7 F100-16", "conditions": "Homo sapiens; MCF7 F100-16 breast; monotherapy; read-out: mono AC50", "source_text": "as §1, §2, §3, §4, §5, §6, §7, §8"}, "[11]": {"system": "MCF7 T52", "conditions": "Homo sapiens; MCF7 T52 breast; monotherapy; read-out: mono AC50", "source_text": "as §1, §2, §3, §4, §5, §6, §7, §8"}, "[12]": {"system": "MDA-MB-134IV", "conditions": "MDA-MB-134IV breast; monotherapy; read-out: mono AC50", "source_text": "as §1, §2, §3, §4, §5, §6, §7, §8"}, "[13]": {"system": "MDA-MB-157", "conditions": "Homo sapiens; MDA-MB-157 breast; monotherapy; read-out: mono AC50", "source_text": "as §1, §2, §3, §4, §5, §6, §7, §8"}, "[14]": {"system": "MDA-MB-231", "conditions": "Homo sapiens; MDA-MB-231 breast; monotherapy; read-out: mono AC50", "source_text": "as §1, §2, §3, §4, §5, §6, §7, §8"}, "[15]": {"system": "NCI-H1573", "conditions": "Homo sapiens, NCI-H1573, 240 h, NCI-H1573 lung; monotherapy; read-out: mono AC50", "source_text": "as §1, §2, §3, §4, §5, §6, §7, §8"}, "[16]": {"system": "NCI-H1666", "conditions": "Homo sapiens; NCI-H1666 lung; monotherapy; read-out: mono AC50", "source_text": "as §1, §2, §3, §4, §5, §6, §7, §8"}, "[17]": {"system": "NCI-H1792", "conditions": "Homo sapiens; NCI-H1792 lung; monotherapy; read-out: mono AC50", "source_text": "as §1, §2, §3, §4, §5, §6, §7, §8"}, "[18]": {"system": "NCI-H2291", "conditions": "Homo sapiens; NCI-H2291 lung; monotherapy; read-out: mono AC50", "source_text": "as §1, §2, §3, §4, §5, §6, §7, §8"}, "[19]": {"system": "NCI-H358", "conditions": "Homo sapiens; NCI-H358 lung; monotherapy; read-out: mono AC50", "source_text": "as §1, §2, §3, §4, §5, §6, §7, §8"}, "[20]": {"system": "NCI-H522", "conditions": "Homo sapiens; NCI-H522 lung; monotherapy; read-out: mono AC50", "source_text": "as §1, §2, §3, §4, §5, §6, §7, §8"}, "[21]": {"system": "NCI-H838", "conditions": "Homo sapiens; NCI-H838 lung; monotherapy; read-out: mono AC50", "source_text": "as §1, §2, §3, §4, §5, §6, §7, §8"}, "[22]": {"system": "SK-BR-3", "conditions": "Homo sapiens; SK-BR-3 breast; monotherapy; read-out: mono AC50", "source_text": "as §1, §2, §3, §4, §5, §6, §7, §8"}, "[23]": {"system": "SUM52PE", "conditions": "SUM52PE breast; monotherapy; read-out: mono AC50", "source_text": "as §1, §2, §3, §4, §5, §6, §7, §8"}, "[24]": {"system": "T47D", "conditions": "Homo sapiens; T47D breast; monotherapy; read-out: mono AC50", "source_text": "as §1, §2, §3, §4, §5, §6, §7, §8"}}, "note": "Like-named read-outs stand apart in the source and are kept apart here.", "data": [{"smiles": "C[C@@H]1COCCN1c1cc(C2([S@](C)(=N)=O)CC2)nc(-c2ccnc3[nH]ccc23)n1", "note": "[AZD6738, 4-{4-[(3R)-3-Methylmorpholin-4-yl]-6-[1-((R)—S-methylsulfonimidoyl)cyclopropyl]pyrimidin-2-yl}-1H-pyrrolo[2,3-b]-pyridine]", "values": [{"measurement": "AC50", "setting": "[1]", "result": 1.18, "unit": "µM"}, {"measurement": "AC50", "setting": "[2]; Calu-1 lung", "result": 5.6, "unit": "µM"}, {"measurement": "AC50", "setting": "[2]; Homo sapiens, Calu-1, Calu-1 lung", "result": 3.22, "unit": "µM"}, {"measurement": "AC50", "setting": "[3]", "result": 3.25, "unit": "µM"}, {"measurement": "AC50", "setting": "[4]", "result": 14.3, "unit": "µM"}, {"measurement": "AC50", "setting": "[5]", "result": 0.814, "unit": "µM"}, {"measurement": "AC50", "setting": "[6]", "result": 0.957, "unit": "µM"}, {"measurement": "AC50", "setting": "[7]", "result": 0.57, "unit": "µM"}, {"measurement": "AC50", "setting": "[8]", "result": 0.59, "unit": "µM"}, {"measurement": "AC50", "setting": "[9]", "result": 0.869, "unit": "µM"}, {"measurement": "AC50", "setting": "[10]", "result": 1.73, "unit": "µM"}, {"measurement": "AC50", "setting": "[11]", "result": 1.39, "unit": "µM"}, {"measurement": "AC50", "setting": "[12]", "result": 5.78, "unit": "µM"}, {"measurement": "AC50", "setting": "[13]", "result": 0.732, "unit": "µM"}, {"measurement": "AC50", "setting": "[14]", "result": 0.866, "unit": "µM"}, {"measurement": "AC50", "setting": "[15]", "result": 1.39, "unit": "µM"}, {"measurement": "AC50", "setting": "[16]", "result": 0.767, "unit": "µM"}, {"measurement": "AC50", "setting": "[17]", "result": 0.677, "unit": "µM"}, {"measurement": "AC50", "setting": "[18]", "result": 1.12, "unit": "µM"}, {"measurement": "AC50", "setting": "[19]", "result": 2.67, "unit": "µM"}, {"measurement": "AC50", "setting": "[20]", "result": 5.65, "unit": "µM"}, {"measurement": "AC50", "setting": "[21]", "result": 0.274, "unit": "µM"}, {"measurement": "AC50", "setting": "[22]", "result": 0.542, "unit": "µM"}, {"measurement": "AC50", "setting": "[23]", "result": 6.51, "unit": "µM"}, {"measurement": "AC50", "setting": "[24]", "result": 6.85, "unit": "µM"}]}]}
